Test results: US7744927B2, “Methods of promoting hematopoietic and mesenchymal cell proliferation and differentiation” (University of Southern California, priority 1997, dated 2010)
Non-standard residues stand in square brackets, D forms with d. No end group written: not given here. Phe(4-NH2) = Nc1ccc(C[C@H](N)C(=O)O)cc1

Legend:
[1] = system: Rat Peritoneal Macrophages; assay: Phagocytosis of opsonized yeast by rat peritoneal macrophages; type: cell-based, Sprague Dawley rats
Procedure: Resident peritoneal macrophages have very little phagocytic activity. Exposure of macrophages to inflammatory or activating agents will increase this macrophage function. Resident peritoneal macrophages were harvested from C57B1/6 mice or Sprague Dawley rats and resuspended at a concentration of 1×10^6 cells/ml in phosphate buffered saline (PBS). Five separate 0.5 ml cell aliquots were placed on a glass coverslip in a 35 mm petri dish. Prior to incubation, either 0.5 ml of PBS, AII, or AII analogues or fragments at between 1-1000 ug/ml final concentration was added to the individual cover slips. The dishes containing the cover slips were then incubated at 37° C. for 4 hours, after which the cover slips were washed 3 to 6 times with PBS. Opsonized yeast particles (Sigma Chemical Co.) (yeast opsonized with adult serum from the same species as that under study) were added to the cover slips and incubated for 2 hours, after which the cover slips were again washed with PBS and inverted onto a glass slide. The number of macrophages that ingested yeast and the number of yeast per macrophage ingested was then determined microscopically. At least 100 macrophages per coverslip were counted. The data from this study are summarized in Tables 3 and 4 and FIGS. 1 and 2.

[2] = system: human peripheral blood mononuclear cells (PBMC); assay: Respiratory burst (hydrogen peroxide generation), human PBMC; type: cell-based; conditions: alone and in response to PMA 10 ng/ml; 4 hours exposure
Procedure: The respiratory burst of leukocytes (macrophages and polymorphonuclear neutrophils) is one component of the mediator system used to kill bacteria. As with phagocytosis, the level of this respiratory burst activity in resident macrophages is low. […] Studies were conducted to assess the effect of in vitro exposure of murine or rat peritoneal macrophages and human peripheral blood mononuclear cells (PBMC) to various concentrations of AII on the capacity to generate hydrogen peroxide via the respiratory burst system. For the human studies, five different donors were examined.
The murine or rat peritoneal cells were harvested by lavage with 5-15 ml of cold PBS with 0.5% bovine serum albumin. The human PBMC were harvested by venipuncture from normal human volunteers and isolated from peripheral blood by Ficoll Hypaque density centrifugation. After isolation, the cells were resuspended at 1×10^6 cells/ml and placed at 100 μl per well into 96 well plates. The cells were incubated with various concentrations of AII or AII analogues for 4 hours at 37° C. The cells were then preloaded with a fluorescent probe for hydrogen peroxide, 2,7 dichlorofluorescein acetate, which is nonfluorescent in the absence of hydrogen peroxide. Fifteen minutes later, 10 ng/ml of phorbol myristate acetate (+PMA) or PBS (−PMA) was added to stimulate the production of hydrogen peroxide. One hour after stimulation the level of fluorescence produced was measured on a Cytofluor 2350 multiwell fluorometer.

[3] = Test of AII fragments for effectiveness (method not described)
AT2 receptor = conditions: experimental models tested; cited from earlier work

DRPYIHPF [GSD 24B]
#/Cell ([1]; peptide 100 μg/ml): 0.58
% w/Yeast ([1]; peptide 100 μg/ml): 23.1%
Number of Macrophages with Yeast (Yeast Number) 0 ([1]; peptide 100 μg/ml): 100
Number of Macrophages with Yeast (Yeast Number) 1-3 ([1]; peptide 100 μg/ml): 25
Number of Macrophages with Yeast (Yeast Number) 4-6 ([1]; peptide 100 μg/ml): 5
#/Cell ([1]; peptide 1000 μg/ml): 0.18
% w/Yeast ([1]; peptide 1000 μg/ml): 9.1%
Number of Macrophages with Yeast (Yeast Number) 1-3 ([1]; peptide 1000 μg/ml): 10
Number of Macrophages with Yeast (Yeast Number) 4-6 ([1]; peptide 1000 μg/ml): 0
ability to generate hydrogen peroxide (respiratory burst) [2]: an increase in the respiratory burst capacity was observed

Asp-Arg-Val-Tyr-Ile-His-Pro (DRVYIHP) [AII(1-7)]
ability to generate hydrogen peroxide (respiratory burst) [2]: an increase in the respiratory burst capacity was observed

His-Pro-Phe (HPF) [AII(6-8)]
effectiveness [3]: found not to be effective

RVYAHPF [GSD 22A]
#/Cell ([1]; peptide 100 μg/ml): 0.59
% w/Yeast ([1]; peptide 100 μg/ml): 23.7%
Number of Macrophages with Yeast (Yeast Number) 0 ([1]; peptide 100 μg/ml): 100
Number of Macrophages with Yeast (Yeast Number) 1-3 ([1]; peptide 100 μg/ml): 26
Number of Macrophages with Yeast (Yeast Number) 4-6 ([1]; peptide 100 μg/ml): 5
#/Cell ([1]; peptide 1000 μg/ml): 0.40
% w/Yeast ([1]; peptide 1000 μg/ml): 18.7%
Number of Macrophages with Yeast (Yeast Number) 1-3 ([1]; peptide 1000 μg/ml): 22
Number of Macrophages with Yeast (Yeast Number) 4-6 ([1]; peptide 1000 μg/ml): 1
ability to generate hydrogen peroxide (respiratory burst) [2]: an increase in the respiratory burst capacity was observed

Asp-Arg-Val-Tyr-Ile-Xaa-Pro-Phe (DRVYI[Phe(4-NH2)]PF) [(p-NH2-Phe)6-AII]
binding characteristics (AT2 receptor): comparable to AT2 antagonists

Tyr-Ile-His-Pro-Phe (YIHPF; printed: Tyr-Ile-His-Pro-Phe) [AII(4-8)]
effectiveness [3]: found not to be effective

DRVYIHPI [GSD 28]
#/Cell ([1]; peptide 100 μg/ml): 0.02
% w/Yeast ([1]; peptide 100 μg/ml): 1.0%
Number of Macrophages with Yeast (Yeast Number) 0 ([1]; peptide 100 μg/ml): 100
Number of Macrophages with Yeast (Yeast Number) 1-3 ([1]; peptide 100 μg/ml): 1
Number of Macrophages with Yeast (Yeast Number) 4-6 ([1]; peptide 100 μg/ml): 0
ability to generate hydrogen peroxide (respiratory burst) [2]: an increase in the respiratory burst capacity was observed
